According to patent US3941842A, “P,P'-Disubstituted α-trichloromethylbenzylanilines” (priority 1972, dated 1976):

Tests used:
[1] = test system: Musca domestica (SNAIDM and RSP strains), Phormia regina, Culex fatigans and Anopheles albimanus; assay: Insecticidal activity over the test insects (Table II, summarised in words); type: in vivo; conditions: overall, test insects of Table II
Protocol: (§1) The compounds of the present invention were tested for insecticidal activity by standard methods, and compared with the insecticidal activities of DDT and symmetrical analogs of DDT, such methoxychlor. Toxicological methods for the determination of the topical LD50 values to adult female SNAIDM and RSP houseflies, Musca domestica L. and to Phormia regina, and LC50 values to Culex pipiens quinquefasciatus Say, and Anopheles albimanus Weid mosquitoes were described by Metcalf el al., 44 Bull. World Health Org. 363 (1971). The methods for evaluation of metabolism by mouse liver homogenate and by female RSP housefly and salt-marsh caterpillar larvae Estigmene acrea Drury, were described by Kapoor et al., 18 J. Agr. Food Chem. 1145 (1970). The techniques for model eocsystem evluation were described by Metcalf et al., 5 J. Environ. Sci. Tech. 709 (1971).
(§2) Since piperonyl butoxide serves to block the action of MFO, the synergized LD50 values express the intrinsic toxicity of the compounds. With the detoxifying action of MFO enzymes blocked, the intrinsic toxicity of the compounds can thus be measured.

[2] = test system: Musca domestica Rsp; assay: Topical LD50 to adult female RSP houseflies; conditions: for LD50: Musca domestica, read-out: Topical LD50, Musca domestica Rsp, Alone; for LD50 / Topical LD50, Musca domestica Rsp, with pb: topical; for Topical LD50, Musca domestica Rsp, with pb: RSP strain, synergized with piperonyl butoxide; for SR, Musca domestica Rsp: synergistic ratio: LD50 alone/LD50 synergized with piperonyl butoxide
Protocol: as §1, §2

[3] = test system: Culex fatigans larvae; assay: LC50 to Culex fatigans larvae; type: in vivo, Culex pipiens quinquefasciatus Say
Source text: (§3) World Health Org. 363 (1971). […] Food Chem. 1145 (1970). […] Sci. Tech. 709 (1971). The results are detailed in Table II. ##SPC1##

[4] = test system: Musca domestica Snaidm; assay: Topical LD50 to adult female SNAIDM houseflies; conditions: for LD50: Musca domestica, read-out: Topical LD50, Musca domestica Snaidm, Alone; for LD50 / Topical LD50, Musca domestica Snaidm, with pb: topical; for Topical LD50, Musca domestica Snaidm, with pb: SNAIDM strain, synergized with piperonyl butoxide; for SR, Musca domestica Snaidm: synergistic ratio: LD50 alone/LD50 synergized with piperonyl butoxide
Protocol: as §1, §2

[5] = test system: Anopheles albimanus larvae; assay: LC50 to Anopheles albimanus larvae; type: in vivo, Anopheles albimanus Weid
Source text: as §3

[6] = test system: Phormia regina; assay: whole plant or invertebrate; conditions: topical; for LD50: Phormia regina, read-out: Topical LD50, Phormia regina, Alone; for Topical LD50, Phormia regina, with pb: synergized with piperonyl butoxide
Protocol: as §1, with “363 (1971).” left out, “Food Chem. 1145 (1970).” left out, “Tech.” for “Tech. 709 (1971).”
as §2

COc1ccc(C(Nc2ccc(C)c(C)c2)C(Cl)(Cl)Cl)cc1 (centres unmarked) [XXIII]
insecticidal effectiveness / toxicity (in words) [1]: Toxicity was also substantially decreased | LD50 [2]: 100 mg/kg | Topical LD50, Musca domestica Rsp, with pb [2]: 28.0 μg per g | SR, Musca domestica Rsp [2]: 3.6 | LC50 Culex fatigans larvae [3]: 0.30 ppm | LD50 [4]: 85 mg/kg | Topical LD50, Musca domestica Snaidm, with pb [4]: 6.5 μg per g | SR, Musca domestica Snaidm [4]: 13.0 | LC50 Anopheles albimanus larvae [5]: 0.18 ppm | LD50 [6]: 77.5 mg/kg | Topical LD50, Phormia regina, with pb [6]: 15.5 μg per g

CCOc1ccc(C(Nc2ccccc2OCC)C(Cl)(Cl)Cl)c(OCC)c1 (centres unmarked) [XXII]
insecticidal effectiveness / toxicity (in words) [1]: Toxicity was also substantially decreased | LD50 [2]: > 500 mg/kg | Topical LD50, Musca domestica Rsp, with pb [2]: 500 μg per g | LC50 Culex fatigans larvae [3]: > 1.0 ppm | LD50 [4]: > 500 mg/kg | Topical LD50, Musca domestica Snaidm, with pb [4]: 500 μg per g | LC50 Anopheles albimanus larvae [5]: > 1.0 ppm | LD50 [6]: > 250 mg/kg | Topical LD50, Phormia regina, with pb [6]: > 250 μg per g

COc1ccc(C(Nc2ccc(C)cc2C)C(Cl)(Cl)Cl)cc1 (centres unmarked) [XXIV]
insecticidal effectiveness / toxicity (in words) [1]: Toxicity was also substantially decreased | LD50 [2]: 140 mg/kg | Topical LD50, Musca domestica Rsp, with pb [2]: 29.0 μg per g | SR, Musca domestica Rsp [2]: 4.8 | LC50 Culex fatigans larvae [3]: 0.28 ppm | LD50 [4]: 95 mg/kg | Topical LD50, Musca domestica Snaidm, with pb [4]: 14.0 μg per g | SR, Musca domestica Snaidm [4]: 6.8 | LC50 Anopheles albimanus larvae [5]: 0.080 ppm | LD50 [6]: 97.5 mg/kg | Topical LD50, Phormia regina, with pb [6]: 25.0 μg per g

CCOc1ccc(C(Nc2ccccc2OCC)C(Cl)(Cl)Cl)cc1 (centres unmarked) [XXI]
insecticidal effectiveness / toxicity (in words) [1]: Toxicity was greatly decreased | LD50 [2]: > 500 mg/kg | Topical LD50, Musca domestica Rsp, with pb [2]: 140 μg per g | SR, Musca domestica Rsp [2]: > 3.5 | LC50 Culex fatigans larvae [3]: > 1.0 ppm | LD50 [4]: > 500 mg/kg | Topical LD50, Musca domestica Snaidm, with pb [4]: 110 μg per g | SR, Musca domestica Snaidm [4]: > 5 | LC50 Anopheles albimanus larvae [5]: > 1.0 ppm | LD50 [6]: > 250 mg/kg | Topical LD50, Phormia regina, with pb [6]: > 250 μg per g

COc1ccc(C(Nc2ccc(C3CCCCC3)cc2)C(Cl)(Cl)Cl)cc1 (centres unmarked) [XXVII]
insecticidal effectiveness / toxicity (in words) [1]: Toxicity was also substantially decreased | LD50 [2]: > 500 mg/kg | Topical LD50, Musca domestica Rsp, with pb [2]: 165 μg per g | SR, Musca domestica Rsp [2]: > 3 | LC50 Culex fatigans larvae [3]: 1.0 ppm | LD50 [4]: > 500 mg/kg | Topical LD50, Musca domestica Snaidm, with pb [4]: 48 μg per g | SR, Musca domestica Snaidm [4]: > 10 | LC50 Anopheles albimanus larvae [5]: > 1.0 ppm | LD50 [6]: > 250 mg/kg | Topical LD50, Phormia regina, with pb [6]: 112.5 μg per g

CN(C)c1ccc(C(Nc2ccc([N+](=O)[O-])cc2)C(Cl)(Cl)Cl)cc1 (centres unmarked) [XXVI]
insecticidal effectiveness / toxicity (in words) [1]: Toxicity was also substantially decreased | LD50 [2]: > 500 mg/kg | Topical LD50, Musca domestica Rsp, with pb [2]: 500 μg per g | LC50 Culex fatigans larvae [3]: 0.38 ppm | LD50 [4]: > 500 mg/kg | Topical LD50, Musca domestica Snaidm, with pb [4]: 120 μg per g | SR, Musca domestica Snaidm [4]: > 4 | LC50 Anopheles albimanus larvae [5]: > 1.0 ppm | LD50 [6]: > 250 mg/kg | Topical LD50, Phormia regina, with pb [6]: > 250 μg per g

COc1ccc(NC(c2ccc(N(C)C)cc2)C(Cl)(Cl)Cl)cc1 (centres unmarked) [XXV]
insecticidal effectiveness / toxicity (in words) [1]: Toxicity was also substantially decreased | LD50 [2]: > 500 mg/kg | Topical LD50, Musca domestica Rsp, with pb [2]: 13.5 μg per g | SR, Musca domestica Rsp [2]: > 37 | LC50 Culex fatigans larvae [3]: 0.70 ppm | LD50 [4]: 310 mg/kg | Topical LD50, Musca domestica Snaidm, with pb [4]: 16.0 μg per g | SR, Musca domestica Snaidm [4]: 19.4 | LC50 Anopheles albimanus larvae [5]: 1.0 ppm | LD50 [6]: > 250 mg/kg | Topical LD50, Phormia regina, with pb [6]: 85.0 μg per g

CCOc1ccc(NC(c2ccccc2OCC)C(Cl)(Cl)Cl)cc1 (centres unmarked) [XX]
insecticidal effectiveness / toxicity (in words) [1]: Toxicity was greatly decreased | LD50 [2]: > 500 mg/kg | Topical LD50, Musca domestica Rsp, with pb [2]: > 500 μg per g | LC50 Culex fatigans larvae [3]: > 1.0 ppm | LD50 [4]: > 500 mg/kg | Topical LD50, Musca domestica Snaidm, with pb [4]: 500 μg per g | LC50 Anopheles albimanus larvae [5]: > 1.0 ppm | LD50 [6]: > 250 mg/kg | Topical LD50, Phormia regina, with pb [6]: > 250 μg per g
